From ChEMBL document CHEMBL4049416, “Synthesis and anti-cancer activities of new sulfonamides 4-substituted-triazolyl nucleosides” (Bioorg Med Chem Lett, 2017)
Active and inactive are the calls of the source. The rule behind the calls is not given here.

Key:
[1] = tested on: RCC4; assay: Anticancer activity against human RCC4 cells after 48 hrs by XTT assay; type: functional, cell-based; details: RCC4, 48 h
[2] = tested on: MDA-MB-231; assay: Anticancer activity against human MDA-MB-231 cells after 48 hrs by XTT assay; type: functional, cell-based; details: MDA-MB-231, 48 h
[3] = Solubility of the compound; type: physicochemical
[4] = Micelle aggregation by the compound
[5] = tested on: RCC4; assay: Induction of autophagy in human RCC4 cells assessed as increase in LC3 conversion at 1 mM after 48 hrs by Western blot method; type: functional, cell-based
[6] = Potency index, ratio of AICAR IC50 to compound IC50 for human RCC4 cells; type: functional
[7] = tested on: MDA-MB-231; assay: Potency index, ratio of AICAR IC50 to compound IC50 for human MDA-MB-231 cells; type: functional
[8] = tested on: RCC4; assay: Anticancer activity against human RCC4 cells at 50 uM after 48 hrs by XTT assay; type: functional, cell-based
[9] = tested on: MDA-MB-231; assay: Anticancer activity against human MDA-MB-231 cells at 50 uM after 48 hrs by XTT assay; type: functional, cell-based
[10] = tested on: RCC4; assay: Induction of apoptosis in human RCC4 cells assessed as PARP cleavage at 20 uM after 48 hrs by Western blot method; type: functional, cell-based
[11] = tested on: RCC4; assay: Induction of autophagy in human RCC4 cells assessed as increase in LC3 lipidation at 20 uM after 48 hrs by Western blot method; type: functional, cell-based
[12] = tested on: RCC4; assay: Induction of autophagy in human RCC4 cells assessed as increase in LC3 cleavage at 20 uM after 48 hrs by Western blot method; type: functional, cell-based

SMILES | IC50 [2] [µM] | IC50 [1] [µM] | other results
CC(=O)OC[C@H]1O[C@@H](n2cc(CN(c3ccccc3)S(C)(=O)=O)nn2)[C@H](OC(C)=O)[C@@H]1OC(C)=O | 250 | 180 | –
CS(=O)(=O)N(Cc1cn([C@@H]2O[C@H](CO)[C@@H](O[C@H]3O[C@H](CO)[C@@H](O)[C@H](O)[C@H]3O)[C@H](O)[C@H]2O)nn1)c1ccc(C#N)cc1 | 250 | 250 | –
CS(=O)(=O)N(Cc1cn([C@H]2O[C@H](CO)[C@@H](O[C@@H]3O[C@H](CO)[C@H](O)[C@H](O)[C@H]3O)[C@H](O)[C@H]2O)nn1)c1ccc(C#N)cc1 | 250 | 120 | –
CC(=O)OC[C@H]1O[C@@H](n2cc(CN(c3ccc(C#N)cc3)S(C)(=O)=O)nn2)[C@@H](OC(C)=O)[C@@H](OC(C)=O)[C@@H]1OC(C)=O | 230 | 240 | –
NC(=O)c1ncn([C@@H]2O[C@H](CO)[C@@H](O)[C@H]2O)c1N [ACADESINE] | 1000 | 250 | Activity [5]: Active
CS(=O)(=O)N(Cc1cn([C@@H]2O[C@H](CO)[C@@H](O)[C@H]2O)nn1)c1ccc(C#N)cc1 | > 250 | 250 | –
COC(=O)C(C)(C)N(Cc1cn([C@@H]2O[C@H](COC(C)=O)[C@@H](OC(C)=O)[C@H]2OC(C)=O)nn1)S(C)(=O)=O | 240 | 50 | –
COC(=O)CN(Cc1cn([C@@H]2O[C@H](COC(C)=O)[C@@H](OC(C)=O)[C@H]2OC(C)=O)nn1)S(C)(=O)=O | 250 | 125 | –
CCS(=O)(=O)N(Cc1cn([C@@H]2O[C@H](COC(C)=O)[C@@H](OC(C)=O)[C@H](OC(C)=O)[C@H]2OC(C)=O)nn1)c1ccc(Cl)cc1 | > 250 | > 250 | –
CC(=O)OC[C@H]1O[C@@H](n2cc(CN(c3ccc(Cl)cc3)S(=O)(=O)c3ccccc3)nn2)[C@H](OC(C)=O)[C@@H]1OC(C)=O | 250 | 250 | –
CCS(=O)(=O)N(Cc1cn([C@@H]2O[C@H](COC(C)=O)[C@@H](OC(C)=O)[C@H]2OC(C)=O)nn1)c1ccc(Cl)cc1 | 250 | 250 | –
COC(=O)CN(Cc1cn([C@@H]2O[C@H](COC(C)=O)[C@@H](OC(C)=O)[C@H](OC(C)=O)[C@H]2OC(C)=O)nn1)S(C)(=O)=O | > 250 | > 250 | –
CC(=O)OC[C@H]1O[C@@H](n2cc(CN(c3ccc(C#N)cc3)S(C)(=O)=O)nn2)[C@H](OC(C)=O)[C@@H](OC(C)=O)[C@@H]1O[C@H]1O[C@H](COC(C)=O)[C@@H](OC(C)=O)[C@H](OC(C)=O)[C@H]1OC(C)=O | 230 | 230 | –

Further lines, with some results ahead:

IC50 [2] [µM] | SMILES | IC50 [1] [µM] | other results
180 | CC(=O)OC[C@H]1O[C@@H](n2cc(CN(c3ccc(C)cc3)S(=O)(=O)c3ccccc3)nn2)[C@H](OC(C)=O)[C@@H](OC(C)=O)[C@@H]1OC(C)=O | 130 | –
31 | CCCCCCCCCCCCCCN(Cc1cn([C@@H]2O[C@H](COC(C)=O)[C@@H](OC(C)=O)[C@H]2OC(C)=O)nn1)S(C)(=O)=O | 29 | solubility [3]: Soluble; Activity [4]: inactive
135 | CC(=O)OC[C@H]1O[C@@H](n2cc(CN(c3ccc(Cl)cc3)S(=O)(=O)c3ccccc3)nn2)[C@H](OC(C)=O)[C@@H](OC(C)=O)[C@@H]1OC(C)=O | 115 | –
100 | CC(=O)OC[C@H]1O[C@@H](n2cc(CN(c3ccc(C#N)cc3)S(C)(=O)=O)nn2)[C@H](OC(C)=O)[C@@H]1OC(C)=O | 235 | –
70 | CC(=O)OC[C@H]1O[C@@H](O[C@H]2[C@H](OC(C)=O)[C@@H](OC(C)=O)[C@@H](n3cc(CN(c4ccc(C#N)cc4)S(C)(=O)=O)nn3)O[C@@H]2COC(C)=O)[C@H](OC(C)=O)[C@@H](OC(C)=O)[C@H]1OC(C)=O | 50 | –
225 | CCCCN(Cc1cn([C@@H]2O[C@H](COC(C)=O)[C@@H](OC(C)=O)[C@H]2OC(C)=O)nn1)S(C)(=O)=O | 250 | solubility [3]: Soluble; Activity [4]: inactive
220 | COc1cccc(N(Cc2cn([C@@H]3O[C@H](COC(C)=O)[C@@H](OC(C)=O)[C@H](OC(C)=O)[C@H]3OC(C)=O)nn2)S(C)(=O)=O)c1 | 200 | –
150 | CCS(=O)(=O)N(Cc1cn([C@H]2O[C@H](COC(C)=O)[C@@H](O[C@@H]3O[C@H](COC(C)=O)[C@H](OC(C)=O)[C@H](OC(C)=O)[C@H]3OC(C)=O)[C@H](OC(C)=O)[C@H]2OC(C)=O)nn1)c1ccc(Cl)cc1 | 160 | –
100 | CC(=O)OC[C@H]1O[C@@H](n2cc(CN(c3ccccc3)S(=O)(=O)c3ccccc3)nn2)[C@H](OC(C)=O)[C@@H]1OC(C)=O | 150 | –
155 | CCS(=O)(=O)N(Cc1cn([C@@H]2O[C@H](COC(C)=O)[C@@H](OC(C)=O)[C@H](OC(C)=O)[C@H]2OC(C)=O)nn1)c1ccccc1 | 175 | –
6 | CCN(CC)CCNC(=O)c1c(C)[nH]c(/C=C2\C(=O)Nc3ccc(F)cc32)c1C [SUNITINIB] | 4 | –
100 | CC(=O)OC[C@H]1O[C@@H](n2cc(CN(c3ccc(C#N)cc3)S(C)(=O)=O)nn2)[C@H](OC(C)=O)[C@@H](OC(C)=O)[C@H]1OC(C)=O | 170 | –
185 | CS(=O)(=O)N(Cc1cn([C@@H]2O[C@H](CO)[C@@H](O)[C@H](O)[C@H]2O)nn1)c1ccc(C#N)cc1 | 200 | –
160 | COc1cccc(N(Cc2cn([C@@H]3O[C@H](COC(C)=O)[C@@H](OC(C)=O)[C@H]3OC(C)=O)nn2)S(C)(=O)=O)c1 | 190 | –
215 | CC(=O)OC[C@H]1O[C@@H](n2cc(CN(c3ccc(C#N)cc3)S(C)(=O)=O)nn2)[C@H](OC(C)=O)[C@@H](OC(C)=O)[C@@H]1OC(C)=O | 120 | –
15 | CCCCCCCCCCCCCCCCN(Cc1cn([C@@H]2O[C@H](COC(C)=O)[C@@H](OC(C)=O)[C@H]2OC(C)=O)nn1)S(C)(=O)=O | 13 | Ratio IC50 [6]: 19; Ratio IC50 [7]: 66; Activity [8]: Active; Activity [9]: Active; Activity [10]: Active; Activity [11]: Active; Activity [12]: Active; solubility [3]: Soluble; Activity [4]: inactive
225 | COC(=O)C(C)(C)N(Cc1cn([C@@H]2O[C@H](COC(C)=O)[C@@H](OC(C)=O)[C@H](OC(C)=O)[C@H]2OC(C)=O)nn1)S(C)(=O)=O | 240 | –
215 | CCS(=O)(=O)N(Cc1cn([C@H]2O[C@H](CO)[C@@H](O[C@@H]3O[C@H](CO)[C@H](O)[C@H](O)[C@H]3O)[C@H](O)[C@H]2O)nn1)c1ccc(Cl)cc1 | 200 | –
205 | CC(=O)OC[C@H]1O[C@@H](n2cc(CN(c3ccc(C)cc3)S(=O)(=O)c3ccccc3)nn2)[C@H](OC(C)=O)[C@@H]1OC(C)=O | 230 | –
225 | CCCCCCN(Cc1cn([C@@H]2O[C@H](COC(C)=O)[C@@H](OC(C)=O)[C@H]2OC(C)=O)nn1)S(C)(=O)=O | 140 | solubility [3]: Soluble; Activity [4]: inactive
